From ChEMBL document CHEMBL1201862, “PubChem BioAssay data set” (2004)
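Briefly, cells in 96-well plates were exposed to five compound concentrations for 48 h, and endpoints were estimated by linear interpolation. Here, GI50 denotes the concentration required for 50% inhibition of growth.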 Calls of active or inactive are those of the source. Cut-off read from the data, not from the text of the source: active = GI50 up to about 1.1 µM and inactive = higher.

Tests used:
Assay in all cases: NCI-60 cell line screen, 48 h
A549 = tested on: A549
MCF7 = tested on: MCF7
SK-MEL-2 = tested on: SK-MEL-2
LOX IMVI = tested on: LOX IMVI
HCC 2998 = tested on: HCC 2998
OVCAR-3 = tested on: OVCAR-3
UACC-62 = tested on: UACC-62
MOLT-4 = tested on: MOLT-4
CAKI-1 = tested on: CAKI-1
K562 = tested on: K562
MDA-N = tested on: MDA-N
U-251 = tested on: U-251
HT-29 = tested on: HT-29
SNB-19 = tested on: SNB-19
BT-549 = tested on: BT-549
HCT-15 = tested on: HCT-15
COLO 205 = tested on: COLO 205
OVCAR-4 = tested on: OVCAR-4
SNB-75 = tested on: SNB-75
TK-10 = tested on: TK-10

| Structure (SMILES) | GI50 (A549) | GI50 (MCF7) | GI50 (SK-MEL-2) | GI50 (LOX IMVI) | GI50 (HCC 2998) | GI50 (OVCAR-3) | GI50 (UACC-62) | GI50 (MOLT-4) | GI50 (CAKI-1) | GI50 (K562) | GI50 (MDA-N) | GI50 (U-251) | GI50 (HT-29) | GI50 (SNB-19) | GI50 (BT-549) | GI50 (HCT-15) | GI50 (COLO 205) | GI50 (OVCAR-4) | GI50 (SNB-75) | GI50 (TK-10) |
| --- | --- | --- | --- | --- | --- | --- | --- | --- | --- | --- | --- | --- | --- | --- | --- | --- | --- | --- | --- | --- |
| O=c1cc2oc3ccc4ccccc4c3cc-2c(=O)[nH]1 | 21 µM (inactive) | 19.1 µM (inactive) | 17.3 µM (inactive) | 7.71 µM (inactive) | 16.9 µM (inactive) | 11.4 µM (inactive) | 17.9 µM (inactive) | 2.25 µM (inactive) | 15.3 µM (inactive) | 19.8 µM (inactive) | 11.3 µM (inactive) | 10.2 µM (inactive) | 16 µM (inactive) | 14 µM (inactive) | 1.34 µM (inactive) | 7.55 µM | 15.3 µM (inactive) | 22.3 µM (inactive) | – | – |
| NS(=O)(=O)c1ccc(-c2ccc([As](=O)(O)O)cc2)cc1 | > 100 µM (inactive) | > 100 µM (inactive) | > 100 µM (inactive) | > 100 µM (inactive) | – | > 100 µM (inactive) | > 100 µM (inactive) | > 100 µM (inactive) | > 100 µM (inactive) | > 100 µM (inactive) | > 100 µM (inactive) | > 100 µM (inactive) | > 100 µM (inactive) | > 100 µM (inactive) | > 100 µM (inactive) | > 100 µM | > 100 µM (inactive) | > 100 µM (inactive) | 11.6 µM (inactive) | > 100 µM (inactive) |
| CNC(=O)CNC(=O)C(Cc1ccc(NC(=O)CCCCC(C)=O)cc1)NC(=O)C(CCC(=O)OCc1ccccc1)NC(=O)OC(C)(C)C (stereo not given) | > 100 µM (inactive) | > 100 µM (inactive) | – | > 100 µM (inactive) | > 100 µM (inactive) | > 100 µM (inactive) | > 100 µM (inactive) | > 100 µM (inactive) | > 100 µM (inactive) | > 100 µM (inactive) | > 100 µM (inactive) | > 100 µM (inactive) | > 100 µM (inactive) | > 100 µM (inactive) | > 100 µM (inactive) | > 100 µM | > 100 µM (inactive) | > 100 µM (inactive) | > 100 µM (inactive) | > 100 µM (inactive) |
| Cc1ccc(C2=Nc3cc(C)c(Cl)cc3S(=O)(=O)NN2)cc1 | 57.8 µM (inactive) | > 100 µM (inactive) | – | > 100 µM (inactive) | > 100 µM (inactive) | > 100 µM (inactive) | 56.9 µM (inactive) | 37.9 µM (inactive) | 27.9 µM (inactive) | 36.3 µM (inactive) | > 100 µM (inactive) | > 100 µM (inactive) | > 100 µM (inactive) | 44.6 µM (inactive) | > 100 µM (inactive) | > 100 µM | > 100 µM (inactive) | 77.4 µM (inactive) | > 100 µM (inactive) | 49.5 µM (inactive) |
| O=C(CC(=O)n1nc(-c2ccccc2)c(/N=N/c2ccc(Cl)cc2)c1-c1ccccc1)Nc1cccc(Cl)c1 | > 100 µM (inactive) | > 10 µM (inactive) | > 100 µM (inactive) | – | > 100 µM (inactive) | – | 73.8 µM (inactive) | 35.9 µM (inactive) | – | 46.7 µM (inactive) | > 100 µM (inactive) | 40.9 µM (inactive) | 75.7 µM (inactive) | 41.1 µM (inactive) | > 100 µM (inactive) | 54.6 µM | > 100 µM (inactive) | – | 43.3 µM (inactive) | > 100 µM (inactive) |
| O=C(c1ccc2ccccc2c1)C1(I)S(=O)(=O)OCCOS1(=O)=O | > 100 µM (inactive) | > 100 µM (inactive) | > 100 µM (inactive) | – | > 100 µM (inactive) | > 100 µM (inactive) | – | > 100 µM (inactive) | > 100 µM (inactive) | > 100 µM (inactive) | > 100 µM (inactive) | > 100 µM (inactive) | > 100 µM (inactive) | > 100 µM (inactive) | > 100 µM (inactive) | > 100 µM | > 100 µM (inactive) | > 100 µM (inactive) | – | > 100 µM (inactive) |
| O=C(/C=C/c1ccc(O)cc1)NCCc1ccc(O)cc1 [N-P-COUMAROYL TYRAMINE] | 4.06 µM (inactive) | > 12.5 µM (inactive) | > 12.5 µM (inactive) | > 12.5 µM (inactive) | – | 8.93 µM (inactive) | 7.41 µM (inactive) | – | 10.2 µM (inactive) | 5.6 µM (inactive) | > 12.5 µM (inactive) | > 12.5 µM (inactive) | > 12.5 µM (inactive) | > 12.5 µM (inactive) | 7.53 µM (inactive) | > 12.5 µM | > 12.5 µM (inactive) | 8.63 µM (inactive) | – | 3.72 µM (inactive) |
| Cc1ccc(S(=O)(=O)N(CCN2C(=O)c3ccccc3C2=O)c2cc3c4c(c2)Oc2cc(N(CCN5C(=O)c6ccccc6C5=O)S(=O)(=O)c5ccc(C)cc5)cc5c2C4(C)c2c(cc(N(CCN4C(=O)c6ccccc6C4=O)S(=O)(=O)c4ccc(C)cc4)cc2O5)O3)cc1 | > 100 µM (inactive) | > 100 µM (inactive) | > 100 µM (inactive) | > 100 µM (inactive) | – | > 100 µM (inactive) | > 100 µM (inactive) | > 100 µM (inactive) | > 100 µM (inactive) | > 100 µM (inactive) | > 100 µM (inactive) | > 100 µM (inactive) | > 100 µM (inactive) | > 100 µM (inactive) | > 100 µM (inactive) | > 100 µM | > 100 µM (inactive) | > 100 µM (inactive) | > 100 µM (inactive) | > 100 µM (inactive) |
| COc1cc([C@@H]2c3cc4c(cc3[C@H](OC3OC5COC(C(C)C)OC5C(O)C3O)C3COC(=O)[C@@H]32)OCO4)cc(OC)c1O (stereo not given in full) | 8.67 µM (inactive) | 3.6 µM (inactive) | 17.3 µM (inactive) | 12.2 µM (inactive) | – | 11.8 µM (inactive) | 11.1 µM (inactive) | 3.17 µM (inactive) | 4.27 µM (inactive) | 8.61 µM (inactive) | 2.4 µM (inactive) | 2.53 µM (inactive) | 2.97 µM (inactive) | 14.6 µM (inactive) | 3.42 µM (inactive) | 10.3 µM | 6.82 µM (inactive) | 15.1 µM (inactive) | – | 23.5 µM (inactive) |
| COC(=O)c1ccccc1NC(=O)/C(=N\NC(C)(C)C)C(C#N)c1nc(-c2ccc([N+](=O)[O-])cc2)cs1 (stereo not given) | > 100 µM (inactive) | > 100 µM (inactive) | > 100 µM (inactive) | > 100 µM (inactive) | > 100 µM (inactive) | > 100 µM (inactive) | > 100 µM (inactive) | > 100 µM (inactive) | > 100 µM (inactive) | > 100 µM (inactive) | > 100 µM (inactive) | > 100 µM (inactive) | > 100 µM (inactive) | > 100 µM (inactive) | > 100 µM (inactive) | > 100 µM | > 100 µM (inactive) | > 100 µM (inactive) | > 100 µM (inactive) | – |
| CC(=O)O.CN1CCN(CN2C(=O)C3C4C=CC(C3C2=O)C2C3C(=O)N(CN5CCN(C)CC5)C(=O)C3C42)CC1 (stereo not given) | 22 µM (inactive) | 32.3 µM (inactive) | – | 18.2 µM (inactive) | 22.2 µM (inactive) | 24.3 µM (inactive) | 20.7 µM (inactive) | 20.2 µM (inactive) | – | 22.2 µM (inactive) | 17.8 µM (inactive) | 19 µM (inactive) | 25.3 µM (inactive) | – | 25.5 µM (inactive) | 18.9 µM | 19 µM (inactive) | 21.4 µM (inactive) | 23.3 µM (inactive) | 45.3 µM (inactive) |
| CCC1(CC)C(=O)CC[C@@]2(C)C1=CC[C@H]1[C@@H]3CC[C@H](O)[C@@]3(C)CC[C@@H]12 | 13.5 µM (inactive) | – | 79.3 µM (inactive) | 19.4 µM (inactive) | – | 19.7 µM (inactive) | 54.7 µM (inactive) | 25.6 µM (inactive) | 83.8 µM (inactive) | 16.4 µM (inactive) | 31.3 µM (inactive) | 18.1 µM (inactive) | 15 µM (inactive) | 24 µM (inactive) | > 100 µM (inactive) | 46.9 µM | 28 µM (inactive) | 34.8 µM (inactive) | 35.6 µM (inactive) | 19.9 µM (inactive) |
| Nc1cc2ncnn2c(SCC(=O)N/N=C/C(Br)=C\c2ccccc2)n1 | 16.3 µM (inactive) | 14.7 µM (inactive) | – | 16 µM (inactive) | 19.9 µM (inactive) | 18.5 µM (inactive) | 7.23 µM (inactive) | 12.4 µM (inactive) | 17.9 µM (inactive) | 12.8 µM (inactive) | 16.2 µM (inactive) | 5.24 µM (inactive) | 14.8 µM (inactive) | 31 µM (inactive) | 17.3 µM (inactive) | 18.1 µM | 19.1 µM (inactive) | – | 20.1 µM (inactive) | 31.8 µM (inactive) |
| C=C[C@@]1(C)CC(=O)[C@]2(O)[C@@]3(C)[C@@H](OC(C)=O)CCC(C)(C)[C@@H]3[C@H](O)[C@H](OC(C)=O)[C@@]2(C)O1 | > 100 µM (inactive) | > 100 µM (inactive) | > 100 µM (inactive) | > 100 µM (inactive) | > 100 µM (inactive) | > 100 µM (inactive) | > 100 µM (inactive) | > 100 µM (inactive) | > 100 µM (inactive) | > 100 µM (inactive) | > 100 µM (inactive) | > 100 µM (inactive) | > 100 µM (inactive) | > 100 µM (inactive) | > 100 µM (inactive) | > 100 µM | – | > 100 µM (inactive) | 27.6 µM (inactive) | – |
| N=C1OC(CN2CCN(c3ccccc3)CC2)CN1C(=O)Nc1ccccc1 (stereo not given) | > 100 µM (inactive) | > 100 µM (inactive) | > 100 µM (inactive) | > 100 µM (inactive) | > 100 µM (inactive) | – | > 100 µM (inactive) | > 100 µM (inactive) | > 100 µM (inactive) | 60.5 µM (inactive) | > 100 µM (inactive) | > 100 µM (inactive) | > 100 µM (inactive) | > 100 µM (inactive) | > 100 µM (inactive) | > 100 µM | > 100 µM (inactive) | > 100 µM (inactive) | – | > 100 µM (inactive) |
